Here are results for 13 compounds from patent EP4471048A1, “PEPTIDE INHIBITORS OF INTERLEUKIN-23 RECEPTOR” (Zealand Pharma A/S, priority 2023, dated 2024).

*1 amine or outer side, *2 acyl side, *3 side chain or, on linkers, in order; H or OH if unused. Where a SMILES comes first, the peptide text is derived from it. Bridges are numbered along the chain shown (N, C = ends). [ ]: non-standard residue; d: D form. hAad = O=C([C@H](CCCCC(=O)[*:3])N[*:1])[*:2]; X17 = O=C(C[C@@H](CCCN[*:3])N[*:2])[*:1]; 2Nal = N[C@@H](Cc1ccc2ccccc2c1)C(=O)O; AEF = NCCOc1ccc(C[C@H](N)C(=O)O)cc1; 3Pal = N[C@@H](Cc1cccnc1)C(=O)O; Aad = N[C@@H](CCCC(=O)O)C(=O)O; αMeL = CC(C)C[C@](C)(N)C(=O)O; dOrn = NCCC[C@@H](N)C(=O)O; dDab = NCC[C@@H](N)C(=O)O; Dab = NCC[C@H](N)C(=O)O

The target of the test is T1, human IL-23R (Homo sapiens, UniProt Q5VWK5).
T1 sequence (Q5VWK5 22-629): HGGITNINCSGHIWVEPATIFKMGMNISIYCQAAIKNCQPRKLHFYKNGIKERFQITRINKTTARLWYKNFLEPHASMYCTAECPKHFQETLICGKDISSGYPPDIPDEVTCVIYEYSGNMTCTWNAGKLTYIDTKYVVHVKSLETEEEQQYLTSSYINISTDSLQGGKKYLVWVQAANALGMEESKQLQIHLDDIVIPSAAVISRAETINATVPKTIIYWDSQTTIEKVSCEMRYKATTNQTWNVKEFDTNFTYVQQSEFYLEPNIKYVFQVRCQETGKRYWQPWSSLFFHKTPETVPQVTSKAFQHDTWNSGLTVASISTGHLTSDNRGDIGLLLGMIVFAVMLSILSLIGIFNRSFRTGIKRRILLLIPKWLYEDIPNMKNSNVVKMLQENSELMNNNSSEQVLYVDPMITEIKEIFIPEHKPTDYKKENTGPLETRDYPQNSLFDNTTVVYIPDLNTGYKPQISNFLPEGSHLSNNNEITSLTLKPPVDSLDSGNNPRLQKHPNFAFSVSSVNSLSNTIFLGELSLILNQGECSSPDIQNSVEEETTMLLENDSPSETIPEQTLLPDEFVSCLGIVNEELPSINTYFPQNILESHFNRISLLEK
The test can be described thus: biochemical. The conditions noted are these: for Emax: read-out: % displacement (hIL-23R NIuc). A digest of the protocol:
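BRET displacement of a TAMRA-labelled reference compound from N-terminal Nanoluc-IL-23R fusion protein in membranes from stably transfected HEK293 cells. Incubation 2 h at room temperature, then Nanoluc substrate was added and the TAMRA/Nanoluc ratio read. IC50 and maximal displacement came from 4-parameter logistic fits.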

`COc1ccc(C[C@@H]2NC(=O)[C@@H]3CCC(=O)N[C@@H](CCCCNC(=O)CC[C@@H](C(=O)N[C@@H](CCCCNC(=O)Cc4cccnc4)C(N)=O)NC(=O)[C@](C)(CC(C)C)NC(=O)[C@H](Cc4ccc5ccccc5c4)NC2=O)C(=O)N[C@@H]([C@@H](C)O)C(=O)N[C@@H](C(C)C)C(=O)N[C@@H](Cc2c[nH]c4ccccc24)C(=O)N[C@@H](CCC(N)=O)C(=O)N3)cc1` [Compound 51, K(1c)(6c)^†TVWQE(6c)[Y(Me)][2-Nal][2-Me-Leu]E(1c)[K(3-pyridylacetyl)]-[NH2]]: half-maximal inhibition (IC50) was put at 300 nM and the Emax turned out to be 102%.
Consider `CC[C@H](C)[C@@H]1NC(=O)[C@@H]2CCCCNC(=O)CC[C@@H](C(=O)N[C@@H](CCN)C(=O)N[C@H](Cc3cccnc3)C(N)=O)NC(=O)[C@](C)(C(C)C)NC(=O)[C@H](Cc3ccc4ccccc4c3)NC(=O)[C@H](Cc3ccc(C)cc3)NC(=O)[C@H](CCC(=O)N2)NC(=O)[C@H](CCC(N)=O)NC(=O)[C@H](Cc2c[nH]c3ccccc23)NC(=O)[C@H](C(C)C)NC1=O` [Compound 18, K(1c)(6c)^†IVWQE(6c)[F(4-Me)][2-Nal][2-Me-Val]E(1c)[Dab][{d}3-(3-Pyridyl)-Ala]-[NH2]], for which the “% displacement (hIL-23R NIuc)” value stood at 100% and the IC50 was determined as 8.5 nM.
Take `CC(C)C[C@]1(C)NC(=O)[C@H](Cc2ccc3ccccc3c2)NC(=O)[C@H](Cc2ccc(OCCN)cc2)NC(=O)[C@@H]2CC(=O)N[C@H](CCCNC(=O)CCC[C@@H](C(=O)N[C@@H](CCN)C(=O)N[C@@H](Cc3cccnc3)C(N)=O)NC1=O)C(=O)N[C@@H]([C@@H](C)O)C(=O)N[C@@H](C(C)C)C(=O)N[C@@H](Cc1c[nH]c3ccccc13)C(=O)N[C@@H](CCC(N)=O)C(=O)N2` [Compound 8, [{d}Orn](1c)(6c)^†TVWQD(6c)[Y(2-aminoethoxy)][2-Nal][2-Me-Leu][hGlu](1c)[Dab][3-(3-Pyridyl)-Ala]-[NH2]] ([dOrn]TVWQD[AEF][2Nal][αMeL][Aad][Dab][3Pal]-NH2; lactam 1-10, N-6): half-maximal inhibition (IC50) required 0.52 nM.
Compound `CNC(=O)[C@H](Cc1cccnc1)NC(=O)[C@H](CCN)NC(=O)[C@@H]1CCC(=O)NCC[C@@H]2NC(=O)CC[C@H](NC(=O)[C@H](CCC(N)=O)NC(=O)[C@H](Cc3c[nH]c4ccccc34)NC(=O)CNC2=O)C(=O)N[C@@H](Cc2ccc(OCCN)cc2)C(=O)N[C@@H](Cc2ccc3ccccc3c2)C(=O)N[C@@](C)(CC(C)C)C(=O)N1` [Compound 92, [Dab](1c)(6c)^†GWQE(6c)[Y(2-aminoethoxy)][2-Nal][2-Me-Leu]E(1c)[Dab][3-(3-Pyridyl)-Ala]-[NHMe]] had an IC50 of 12 nM.
For the compound `CC(C)C[C@]1(C)NC(=O)[C@H](Cc2ccc3ccccc3c2)NC(=O)[C@H](Cc2ccc(OCCN)cc2)NC(=O)[C@@H]2CC(=O)N[C@H](CCNC(=O)CCCC[C@@H](C(=O)N[C@@H](CCN)C(=O)N[C@@H](Cc3cccnc3)C(N)=O)NC1=O)C(=O)N[C@@H]([C@@H](C)O)C(=O)N[C@@H](C(C)C)C(=O)N[C@@H](Cc1c[nH]c3ccccc13)C(=O)N[C@@H](CCC(N)=O)C(=O)N2` [Compound 9, [{d}Dab](1c)(6c)^†TVWQD(6c)[Y(2-aminoethoxy)][2-Nal][2-Me-Leu][2-Amino-6-carboxyhexanoyl](1 c)[Dab][3-(3-Pyridyl)-Ala]-[NH2]] ([dDab]TVWQD[AEF][2Nal][αMeL][hAad][Dab][3Pal]-NH2; lactam 1-10, N-6), the “% displacement (hIL-23R NIuc)” value is given as 103% and the IC50 was 0.52 nM.
`CNC(=O)[C@H](Cc1cccnc1)NC(=O)[C@H](CCN)NC(=O)[C@@H]1CCC(=O)NCC[C@@H]2NC(=O)CC[C@H](NC(=O)[C@H](CCC(N)=O)NC(=O)[C@H](Cc3c[nH]c4ccccc34)NC2=O)C(=O)N[C@@H](Cc2ccc(OCCN)cc2)C(=O)N[C@@H](Cc2ccc3ccccc3c2)C(=O)N[C@@](C)(CC(C)C)C(=O)N1` [Compound 94, [Dab](1c)(6c)^†WQE(6c)[Y(2-aminoethoxy)][2-Nal][2-Me-Leu]E(1c)[Dab][3-(3-Pyridyl)-Ala]-[NHMe]]: the IC50 turned out to be 3.7 nM and the Emax was 99%.
Take `CNC(=O)[C@H](Cc1cccnc1)NC(=O)[C@H](CCN)NC(=O)[C@@H]1CCC(=O)NCCCCC[C@@H]2NC(=O)CC[C@H](NC(=O)[C@H](CCC(N)=O)NC(=O)[C@H](Cc3c[nH]c4ccccc34)NC2=O)C(=O)N[C@@H](Cc2ccc(OCCN)cc2)C(=O)N[C@@H](Cc2ccc3ccccc3c2)C(=O)N[C@@](C)(CC(C)C)C(=O)N1` [Compound 93, [hLys](1c)(6c)^†WQE(6c)[Y(2-aminoethoxy)][2-Nal][2-Me-Leu]E(1c)[Dab][3-(3-Pyridyl)-Ala]-[NHMe]]: the “% displacement (hIL-23R NIuc)” value was 99% and the IC50 was 3 nM.
Turning to `CC[C@H](C)[C@@H]1NC(=O)[C@@H]2CCCCNC(=O)CC[C@@H](C(=O)NCC(=O)N[C@H](Cc3cccnc3)C(N)=O)NC(=O)[C@](C)(C(C)C)NC(=O)[C@H](Cc3ccc4ccccc4c3)NC(=O)[C@H](CC3CC3)NC(=O)[C@H](CCC(=O)N2)NC(=O)[C@H](CCC(N)=O)NC(=O)[C@H](Cc2c[nH]c3ccccc23)NC(=O)[C@H](C(C)C)NC1=O` [Compound 20, K(1c)(6c)^†IVWQE(6c)[Cyclopropyl-Ala][2-Nal][2-Me-Val]E(1c)G[{d}3-(3-Pyridyl)-Ala]-[NH2]], the “% displacement (hIL-23R NIuc)” value amounted to 108% and the IC50 turned out to be 150 nM.
On to `CC(C)C[C@]1(C)NC(=O)[C@H](Cc2ccc3ccccc3c2)NC(=O)[C@H](Cc2ccc(OCCN)cc2)NC(=O)[C@@H]2CCC(=O)N[C@H](CCCNC(=O)CC[C@@H](C(=O)N[C@@H](CCN)C(=O)N[C@@H](Cc3cccnc3)C(N)=O)NC1=O)CC(=O)N[C@@H]([C@@H](C)O)C(=O)N[C@@H](Cc1c[nH]c3ccccc13)C(=O)N[C@@H](CCC(N)=O)C(=O)N2` [Compound 14, [{d}bLys](1c)(6c)^†TWQE(6c)[Y(2-aminoethoxy)][2-Nal][2-Me-Leu]E(1c)[Dab][3-(3-Pyridyl)-Ala]-[NH2]] (TWQE[AEF][2Nal][αMeL]E[Dab][3Pal]-NH2; linker N-4-8 via X17), for which it took 0.44 nM to reach half-maximal inhibition (IC50) and the Emax came to 101%.
For the compound `CC(C)C[C@]1(C)NC(=O)[C@H](Cc2ccc3ccccc3c2)NC(=O)[C@H](Cc2ccc(OCCN)cc2)NC(=O)[C@@H]2CC(=O)N[C@H](CCCNC(=O)CC[C@@H](C(=O)N[C@@H](CCN)C(=O)N[C@@H](Cc3cccnc3)C(N)=O)NC1=O)C(=O)N[C@@H]([C@@H](C)O)C(=O)N[C@@H](C(C)C)C(=O)N[C@@H](Cc1c[nH]c3ccccc13)C(=O)N[C@@H](CCC(N)=O)C(=O)N2` [Compound 10, [{d}Orn](1c)(6c)^†TVWQD(6c)[Y(2-aminoethoxy)][2-Nal][2-Me-Leu]E(1c)[Dab][3-(3-Pyridyl)-Ala]-[NH2]] ([dOrn]TVWQD[AEF][2Nal][αMeL]E[Dab][3Pal]-NH2; lactam 1-10, N-6), half-maximal inhibition (IC50) was put at 0.67 nM and the Emax is 107%.
Take `COc1ccc(C[C@@H]2NC(=O)[C@@H]3CCC(=O)N[C@@H](CCCCNC(=O)CC[C@@H](C(=O)N[C@@H](CCCCNC(=O)Cc4ncc[nH]4)C(N)=O)NC(=O)[C@](C)(CC(C)C)NC(=O)[C@H](Cc4ccc5ccccc5c4)NC2=O)C(=O)N[C@@H]([C@@H](C)O)C(=O)N[C@@H](C(C)C)C(=O)N[C@@H](Cc2c[nH]c4ccccc24)C(=O)N[C@@H](CCC(N)=O)C(=O)N3)cc1` [Compound 58, K(1c)(6c)^†TVWQE(6c)[Y(Me)][2-Nal][2-Me-Leu]E(1c)[K(Imidazoleacetyl)]-[NH2]]: the IC50 came to 550 nM.
For the compound `CC[C@H](C)[C@@H]1NC(=O)[C@@H]2CCCCNC(=O)CC[C@@H](C(=O)NCCCCCCc3cccnc3)NC(=O)[C@](C)(C(C)C)NC(=O)[C@H](Cc3ccc4ccccc4c3)NC(=O)[C@H](Cc3ccc(OCCN)cc3)NC(=O)[C@H](CCC(=O)N2)NC(=O)[C@H](CCC(N)=O)NC(=O)[C@H](Cc2c[nH]c3ccccc23)NC(=O)[C@H](C(C)C)NC1=O` [Compound 29, K(1c)(6c)^†IVWQE(6c)[Y(2-aminoethoxy)][2-Nal][2-Me-Val]E(1c)-[NH-6-(pyridin-3-yl)hexanyl]], 480 nM corresponded to half-maximal inhibition (IC50) and the Emax stood at 95%.
Regarding `CNC(=O)[C@H](Cc1cccnc1)NC(=O)[C@H](CCN)NC(=O)[C@@H]1CCC(=O)NCCCC[C@H]2C(=O)N[C@@H]([C@@H](C)O)C(=O)N[C@@H](Cc3c[nH]c4ccccc34)C(=O)N[C@@H](CCC(N)=O)C(=O)N[C@@H](Cc3cn2nn3)C(=O)N[C@@H](Cc2ccc(OCCN)cc2)C(=O)N[C@@H](Cc2ccc3ccccc3c2)C(=O)N[C@@](C)(CC(C)C)C(=O)N1` [Compound 41, [(N3)-K](1c)(6g)^†TWQ[Pra](6g)[Y(2-aminoethoxy)][2-Nal][2-Me-Leu]E(1c)[Dab][3-(3-Pyridyl)-Ala]-[NHMe]], the IC50 amounted to 1.5 nM and the Emax turned out to be 98%.

The IC50 is the point on the concentration scale where inhibition reaches its midpoint. The low end stands for greater potency in that assay, the high end for weaker potency in that assay.
